According to PubChem BioAssay (NCI):
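96-well plates; 48 h exposure; 5 concentrations. Endpoints by linear interpolation between flanking doses. Not reached: highest tested concentration assigned. GI50: concentration for 50% inhibition of growth. TGI: concentration producing complete growth inhibition.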

What was measured:
Assay in all cases: NCI anticancer screen, dose series, 48 h; in the data active = GI50 below about 0.43 µM; inactive = the rest
[1] = tested on: 786-0 renal
[2] = tested on: A498 renal
[3] = tested on: ACHN renal
[4] = tested on: BT-549 breast
[5] = tested on: CAKI-1 renal
[6] = tested on: CCRF-CEM leukemia
[7] = tested on: COLO 205 colon
[8] = tested on: DU-145 prostate
[9] = tested on: EKVX NSCLC
[10] = tested on: HCC-2998 colon
[11] = tested on: HCT-116 colon
[12] = tested on: HCT-15 colon
[13] = tested on: HL-60(TB) leukemia
[14] = tested on: HOP-62 NSCLC
[15] = tested on: HOP-92 NSCLC
[16] = tested on: HS 578T breast
[17] = tested on: HT29 colon
[18] = tested on: IGROV1 ovarian
[19] = tested on: K-562 leukemia
[20] = tested on: KM12 colon
[21] = tested on: LOX IMVI melanoma
[22] = tested on: M14 melanoma
[23] = tested on: MCF7 breast
[24] = tested on: MDA-MB-231 breast
[25] = tested on: MDA-MB-435
[26] = tested on: MOLT-4 leukemia
[27] = tested on: NCI-H226 lung
[28] = tested on: NCI-H23 lung
[29] = tested on: NCI-H460 lung
[30] = tested on: NCI/ADR-RES ovarian
[31] = tested on: OVCAR-4 ovarian
[32] = tested on: OVCAR-8 ovarian
[33] = tested on: PC-3 prostate
[34] = tested on: RPMI-8226 leukemia
[35] = tested on: RXF 393 renal
[36] = tested on: SF-268 CNS
[37] = tested on: SF-295 CNS
[38] = tested on: SF-539 CNS
[39] = tested on: SK-MEL-2 melanoma
[40] = tested on: SK-MEL-28 melanoma
[41] = tested on: SK-MEL-5 melanoma
[42] = tested on: SK-OV-3 ovarian
[43] = tested on: SNB-19 CNS
[44] = tested on: SNB-75 CNS
[45] = tested on: SR leukemia
[46] = tested on: SW-620 colon
[47] = tested on: T-47D breast
[48] = tested on: TK-10 renal
[49] = tested on: U251 CNS
[50] = tested on: UACC-257 melanoma
[51] = tested on: UACC-62 melanoma
[52] = tested on: UO-31 renal
[53] = tested on: A549 NSCLC
[54] = tested on: MALME-3M melanoma
[55] = tested on: NCI-H522 lung
[56] = tested on: OVCAR-3 ovarian
[57] = tested on: OVCAR-5 ovarian
[58] = tested on: SN12C renal

OC(c1ccccc1)C(F)(F)c1nc2ccccc2o1 (stereo not drawn)
75.3 µM: TGI [19]
> 100 µM: TGI [1] | TGI [2] | TGI [3] | TGI [4] | TGI [5] | TGI [6] | TGI [7] | TGI [8] | TGI [9] | TGI [10] | TGI [11] | TGI [12] | TGI [13] | TGI [14] | TGI [15] | TGI [16] | TGI [17] | TGI [18] | TGI [20] | TGI [21] | TGI [22] | TGI [23] | TGI [24] | TGI [25] | TGI [26] | TGI [27] | TGI [28] | TGI [29] | TGI [30] | TGI [31] | TGI [32] | TGI [33] | TGI [34] | TGI [35] | TGI [36] | TGI [37] | TGI [38] | TGI [39] | TGI [40] | TGI [41] | TGI [42] | TGI [43] | TGI [44] | TGI [45] | TGI [46] | TGI [47] | TGI [48] | TGI [49] | TGI [50] | TGI [51] | TGI [52]

CSc1ccc(C2=NN(C(C)=O)C(c3ccc(F)cc3)C2)cc1 (stereo not drawn)
31.3 µM: TGI [54]
21.4 µM: TGI [49]
32.4 µM: TGI [25]
42.4 µM: TGI [33]
26.8 µM: TGI [2]
34.9 µM: TGI [28]
26.4 µM: TGI [41]
42.2 µM: TGI [5]
37.5 µM: TGI [31]
23.2 µM: TGI [21]
67.7 µM: TGI [42]
34.6 µM: TGI [35]
35.7 µM: TGI [1]
49.5 µM: TGI [56]
31.1 µM: TGI [14]
40.2 µM: TGI [4]
63.7 µM: TGI [48]
34.5 µM: TGI [55]
28.6 µM: TGI [24]
22.1 µM: TGI [15]
30.9 µM: TGI [53]
24.5 µM: TGI [6]
41.3 µM: TGI [23]
34.2 µM: TGI [40]
37 µM: TGI [43]
46 µM: TGI [17]
44.1 µM: TGI [44]
23.6 µM: TGI [13]
35.6 µM: TGI [3]
36.2 µM: TGI [37]
49.8 µM: TGI [10]
32.9 µM: TGI [30]
29.8 µM: TGI [52]
20.1 µM: TGI [11]
9.69 µM: TGI [26]
40.3 µM: TGI [46]
50.7 µM: TGI [29]
43.7 µM: TGI [57]
inactive: GI50 [1] 15.6 µM | GI50 [2] 12.5 µM | GI50 [53] 12.1 µM | GI50 [3] 16.9 µM | GI50 [4] 20.3 µM | GI50 [5] 12.9 µM | GI50 [6] 617 nM | GI50 [7] 13.2 µM | GI50 [8] 23.8 µM | GI50 [9] 21.6 µM | GI50 [10] 20.4 µM | GI50 [11] 7.11 µM | GI50 [12] 19.9 µM | GI50 [13] 5.56 µM | GI50 [14] 16.6 µM | GI50 [15] 10.1 µM | GI50 [16] 20.8 µM | GI50 [17] 15.2 µM | GI50 [18] 7.73 µM | GI50 [19] 14.5 µM | GI50 [20] 12.8 µM | GI50 [21] 10.8 µM | GI50 [22] 14.4 µM | GI50 [54] 15.8 µM | GI50 [23] 17.2 µM | GI50 [24] 10.7 µM | GI50 [25] 15 µM | GI50 [26] 2360 nM | GI50 [27] 13.7 µM | GI50 [28] 16.5 µM | GI50 [29] 15.9 µM | GI50 [55] 14.7 µM | GI50 [30] 16.4 µM | GI50 [56] 16.2 µM | GI50 [31] 15.9 µM | GI50 [57] 18.9 µM | GI50 [32] 19.4 µM | GI50 [33] 12.7 µM | GI50 [34] 12 µM | GI50 [35] 18.5 µM | GI50 [36] 14.9 µM | GI50 [37] 16.4 µM | GI50 [38] 17.5 µM | GI50 [39] 20.5 µM | GI50 [40] 17 µM | GI50 [41] 12.9 µM | GI50 [42] 23 µM | GI50 [58] 1230 nM | GI50 [43] 8.19 µM | GI50 [44] 20 µM | GI50 [46] 17.7 µM | GI50 [47] 11.5 µM | GI50 [48] 19.8 µM | GI50 [49] 5.96 µM | GI50 [50] 22.4 µM | GI50 [51] 7.97 µM | GI50 [52] 14.2 µM
> 100 µM: TGI [12]
12.6 µM: TGI [58]
49.7 µM: TGI [16]
31.5 µM: TGI [27]
64.7 µM: TGI [9]
35.4 µM: TGI [38]
45 µM: TGI [50]
36.5 µM: TGI [20]
28.8 µM: TGI [22]
42 µM: TGI [32]
34.8 µM: TGI [18]
61.7 µM: TGI [8]
31.4 µM: TGI [7]
42.5 µM: TGI [36]
41.2 µM: TGI [39]
41.4 µM: TGI [47]
36 µM: TGI [19]
32.5 µM: TGI [34]
21.1 µM: TGI [51]

COc1cc(C23OCC(Cc4cc5c(cc42)OCO5)C3CO)cc(OC)c1OC (stereo not drawn)
43.8 µM: TGI [49]
5.8 µM: TGI [56]
13.2 µM: TGI [21]
8.03 µM: TGI [35]
> 84.4 µM: TGI [24]
> 50.1 µM: TGI [13]
26.2 µM: TGI [38]
inactive: GI50 [51] 4.27 µM
6.89 µM: TGI [10]
5.51 µM: TGI [30]
5.11 µM: TGI [55]
> 22.5 µM: TGI [37]
> 100 µM: TGI [1] | TGI [2] | TGI [53] | TGI [3] | TGI [4] | TGI [5] | TGI [6] | TGI [7] | TGI [8] | TGI [9] | TGI [11] | TGI [12] | TGI [14] | TGI [15] | TGI [16] | TGI [17] | TGI [18] | TGI [19] | TGI [20] | TGI [22] | TGI [54] | TGI [23] | TGI [26] | TGI [27] | TGI [28] | TGI [29] | TGI [31] | TGI [57] | TGI [32] | TGI [33] | TGI [34] | TGI [36] | TGI [39] | TGI [40] | TGI [41] | TGI [43] | TGI [44] | TGI [45] | TGI [46] | TGI [47] | TGI [48] | TGI [50] | TGI [51] | TGI [52]
> 28.8 µM: TGI [42]
